Data: the NIST ThermoML archive (doi:10.1016/j.jct.2013.05.051)

Conditions: Liquid, Vibrating tube method

CCCCCCCO [heptan-1-ol]
mass density [kg/m3]
Conditions	298.15 K	313.15 K	333.15 K	353.15 K	373.15 K	393.15 K
100 kPa	818.7	808	793.3	778.1	761.9	744.9
1000 kPa	819.3	808.6	794	778.8	762.8	745.8
5000 kPa	821.9	811.4	797.1	782.3	766.6	750.2
10000 kPa	824.9	814.7	800.7	786.3	771.1	755.3
15000 kPa	828	817.9	804.3	790.2	775.5	760.1
20000 kPa	830.8	821	807.7	793.9	779.5	764.6
25000 kPa	833.5	823.8	810.8	797.3	783.4	768.8
30000 kPa	836.3	826.8	813.9	800.7	787.1	772.9
35000 kPa	838.8	829.5	816.9	804	790.6	776.8
40000 kPa	841.3	832.1	819.8	807.1	794	780.4
45000 kPa	843.8	834.7	822.4	810	797.2	783.9
50000 kPa	846.2	837.2	825.2	813	800.3	787.3
55000 kPa	848.5	839.7	827.8	815.8	803.4	790.7
60000 kPa	850.8	842.1	830.3	818.6	806.3	793.8
65000 kPa	853	844.4	832.9	821.2	809.2	796.8
70000 kPa	855.2	846.7	835.3	823.8	811.9	799.8
80000 kPa	859.4	851.1	839.9	828.7	817.2	805.5
90000 kPa	863.5	855.3	844.5	833.5	822.3	810.9
100000 kPa	867.3	859.3	848.7	837.9	827	815.9
110000 kPa	871.1	863.2	852.8	842.3	831.6	820.8
120000 kPa	874.6	867	856.8	846.4	835.9	825.3
130000 kPa	878.1	870.6	860.5	850.3	840.2	829.8
140000 kPa	881.5	874.2	864.3	854.3	844.1	834

CCCCCCC [heptane]
mass density [kg/m3]
Conditions	298.15 K	313.15 K	333.15 K	353.15 K	373.15 K	393.15 K
100 kPa	679.5	666.6	648.9	631.2	–	–
1000 kPa	680.4	667.6	650	632.1	613.3	593.5
5000 kPa	684.2	671.8	655	637.8	620.1	601.7
10000 kPa	688.6	676.7	660.6	644.3	627.7	610.6
15000 kPa	692.8	681.3	665.8	650.3	634.5	618.4
20000 kPa	696.7	685.6	670.6	655.7	640.7	625.4
25000 kPa	700.4	689.5	675.1	660.8	646.3	631.7
30000 kPa	704	693.5	679.4	665.5	651.6	637.5
35000 kPa	707.4	697.1	683.4	670	656.5	643
40000 kPa	710.7	700.5	687.3	674.1	661.1	648
45000 kPa	713.8	703.9	690.9	678.1	665.5	652.8
50000 kPa	716.8	707.2	694.4	682	669.6	657.2
55000 kPa	719.7	710.3	697.7	685.5	673.5	661.5
60000 kPa	722.5	713.3	701	689.1	677.3	665.5
65000 kPa	725.2	716.1	704.1	692.4	680.8	669.3
70000 kPa	727.9	718.9	707.1	695.7	684.3	673.1
80000 kPa	732.9	724.2	712.8	701.7	690.8	680.1
90000 kPa	737.7	729.3	718.2	707.5	696.9	686.5
100000 kPa	742.3	734	723.2	712.8	702.6	692.5
110000 kPa	746.6	738.6	728.1	717.9	708	698.2
120000 kPa	750.7	742.8	732.6	722.7	713	703.4
130000 kPa	754.6	747	737	727.3	717.9	708.5
140000 kPa	758.4	751.1	741.1	731.6	722.3	713.4
